{"source": "patent US7595313B2", "about": "“Nitric oxide donating diuretic compounds, compositions and methods of use” (NicOx, S.A., priority 2005, dated 2009)", "key": {"Male Wistar rats": {"tested_on": "Male Wistar rats", "assay": "Determination of the diuresis (urine volume over 6 hours after oral dosing)", "assay_type": "in vivo, rat", "protocol": "Procedures were approved by the Institutional Animal Care and Use Committee of NitroMed, Inc. Male Wistar rats (180-200 g) were purchased from Charles River Laboratories (Kingston, N.Y. or Raleigh, N.C.) and allowed to acclimate in the facility for a period of at least 72 h. Rats were randomly housed 2-3 per cage in a light-controlled room with a 12 hour light/dark cycle and allowed ad libitum access to food and water.\nPrior to the experiment, each rat was placed in a metabolic cage and allowed to acclimate for a period of 24-48 hours with food and water ad libitum. During this acclimation period, rats received mash food instead of pellet food to prevent contamination of the urine samples. All rats were fasted for 18 hours prior to experimentation. In addition, water was removed 90 minutes prior to oral dosing with test compound or vehicle.\nThe test compounds were prepared immediately prior to dosing in 0.5% Methocel (F4M Premium Hydroxypropyl Methylcellulose, lot # PF12012N12; Dow Chemical Company, USA) and homogenized with a glass/Teflon pestle motorized homogenizer. Gently vortexed test compounds were administered intragastrically (p.o.; 30 mg/kg or 3 mg/kg) at a dose volume of 3 ml per rat using an 18 gauge gavage needle. Urine volume (ml) was monitored and urine was collected for subsequent electrolyte analysis over a 6 hours period. […] Data are expressed as mean ±SEM; n=6 or 7."}, "[1]": {"settings": "p.o. 3 mg/kg in 0.5% Methocel, male Wistar rats, 6 hours, mean ± SEM, n=6 or 7"}, "[2]": {"settings": "p.o. 30 mg/kg in 0.5% Methocel, male Wistar rats, 6 hours, mean ± SEM, n=6 or 7"}}, "note": "Structures can show the parent of a compound that is named as a salt.", "data": [{"compound": "NS(=O)(=O)c1cc2c(cc1Cl)NCN(CC(=O)OC[C@H](CO[N+](=O)[O-])O[N+](=O)[O-])S2(=O)=O", "note": "[Example 31b, 2H-1,2,4-Benzothiadiazine-2-acetic acid, 7-(aminosulfonyl)-6-chloro-3,4-dihydro-, (2R)-2,3-bis(nitrooxy)propyl ester, 1,1-dioxide]", "values": [{"measurement": "Urine collected in 6 hours (mL) (3 mg/kg)", "setting": "Male Wistar rats; rat, in vivo, po", "result": "2.0 ± 0.3", "unit": "mL"}]}, {"compound": "NS(=O)(=O)c1cc2c(cc1Cl)NCN(CC(=O)N(CCO[N+](=O)[O-])CCO[N+](=O)[O-])S2(=O)=O", "note": "[Example 39, 2H-1,2,4-Benzothiadiazine-2-acetamide, 7-(aminosulfonyl)-6-chloro-3,4-dihydro-N,N-bis[2-(nitrooxy)ethyl]-, 1,1-dioxide]", "values": [{"measurement": "Urine collected in 6 hours (mL) (3 mg/kg)", "setting": "Male Wistar rats; rat, in vivo, po", "result": "2.5 ± 0.5", "unit": "mL"}]}, {"compound": "NS(=O)(=O)c1cc2c(cc1Cl)NCN(CCCCO[N+](=O)[O-])S2(=O)=O", "note": "(as salt: potassium) [Example 40b, 2H-1,2,4-Benzothiadiazine-7-sulfonamide, 6-chloro-3,4-dihydro-2-[4-(nitrooxy)butyl]-, 1,1-dioxide]", "values": [{"measurement": "melting point", "result": "75 to 77", "unit": "°C"}]}, {"compound": "NS(=O)(=O)c1cc2c(cc1Cl)NCN(Cc1cc(CO[N+](=O)[O-])cc(OCCCCBr)c1)S2(=O)=O", "note": "[Example 68d, 2H-1,2,4-Benzothiadiazine-7-sulfonamide, 2-[[3-(4-bromobutoxy)-5[(nitrooxy)methyl]phenyl]methyl]-6-chloro-3,4-dihydro-, 1,1-dioxide]", "values": [{"measurement": "melting point", "result": 80, "unit": "°C"}]}, {"compound": "NS(=O)(=O)c1cc2c(cc1Cl)NCN(CCCO[N+](=O)[O-])S2(=O)=O", "note": "[Example 35b, 2H-1,2,4-Benzothiadiazine-7-sulfonamide, 6-chloro-3,4-dihydro-2-[3-(nitrooxy)propyl]-, 1,1-dioxide]", "values": [{"measurement": "melting point", "result": "148 to 151 °C (dec.)"}]}, {"compound": "NS(=O)(=O)c1cc2c(cc1Cl)NCN(CCOC(=O)CCCCO[N+](=O)[O-])S2(=O)=O", "note": "[Example 44, Pentanoic acid, 5-(nitrooxy)-, 2-[7-(aminosulfonyl)-6-chloro-3,4-dihydro-1,1-dioxido-2H-1,2,4-benzothiadiazin-2-yl]ethyl ester]", "values": [{"measurement": "Urine collected in 6 hours (mL) (3 mg/kg)", "setting": "Male Wistar rats; [1]", "result": "2.5 ± 0.3", "unit": "mL"}]}, {"compound": "NS(=O)(=O)c1cc2c(cc1Cl)NCN(CCCCOc1cc(CO)cc(CO)c1)S2(=O)=O", "note": "[Example 69a, 2H-1,2,4-Benzothiadiazine-7-sulfonamide, 2-[4-[3,5-bis(hydroxymethyl)phenoxy]butyl]-6-chloro-3,4-dihydro-, 1,1-dioxide]", "values": [{"measurement": "Urine collected in 6 hours (mL) (3 mg/kg)", "setting": "Male Wistar rats; [1]", "result": "2.7 ± 0.6", "unit": "mL"}]}, {"compound": "NS(=O)(=O)c1cc2c(cc1C(F)(F)F)NC1(CCN(C(=O)c3cccc(CO[N+](=O)[O-])c3)CC1)NS2(=O)=O", "note": "[Example 15b, Spiro[2H-1,2,4-benzothiadiazine-3(4H), 4′-piperidine]-7-sulfonamide, 1′-[3-[(nitrooxy)methyl]benzoyl]-6-(trifluoromethyl)-, 1,1-dioxide]", "values": [{"measurement": "Urine collected in 6 hours (mL) (30 mg/kg)", "setting": "Male Wistar rats; [2]", "result": "4.5 ± 0.2", "unit": "mL"}]}, {"compound": "NS(=O)(=O)c1cc2c(cc1Cl)NCN(CC1CO1)S2(=O)=O", "note": "(stereo not shown) [Example 81, 2H-1,2,4-benzothiadiazine-7-sulfonamide, 6-chloro-3,4-dihydro-2-(oxiranylmethyl)-, 1,1-dioxide]", "values": [{"measurement": "melting point", "result": "192 to 197", "unit": "°C"}]}, {"compound": "NS(=O)(=O)c1cc2c(cc1Cl)NCN(CC(CO[N+](=O)[O-])O[N+](=O)[O-])S2(=O)=O", "note": "(stereo not shown) [Example 75c, 2H-1,2,4-Benzothiadiazine-7-sulfonamide, 2-[2,3-bis(nitrooxy)propyl]-6-chloro-3,4-dihydro-, 1,1-dioxide]", "values": [{"measurement": "Urine collected in 6 hours (mL) (3 mg/kg)", "setting": "Male Wistar rats; rat, in vivo, po", "result": "5.4 ± 0.6", "unit": "mL"}]}, {"compound": "NS(=O)(=O)c1cc2c(cc1Cl)NCN(CCCOc1cc(CO)cc(CO)c1)S2(=O)=O", "note": "[Example 70b, 2H-1,2,4-Benzothiadiazine-7-sulfonamide, 2-[3-[3,5-bis(hydroxymethyl)phenoxy]propyl]-6-chloro-3,4-dihydro-, 1,1-dioxide]", "values": [{"measurement": "Urine collected in 6 hours (mL) (3 mg/kg)", "setting": "Male Wistar rats; [1]", "result": "2.8 ± 0.7", "unit": "mL"}]}, {"compound": "CN(CC1Nc2cc(Cl)c(S(N)(=O)=O)cc2S(=O)(=O)N1)C(=O)CN(CCO[N+](=O)[O-])CCO[N+](=O)[O-]", "note": "(stereo not shown)", "values": [{"measurement": "melting point", "result": "183 to 185 °C (dec.)"}]}, {"compound": "NS(=O)(=O)c1cc2c(cc1Cl)NC(CN1CCC(CCO[N+](=O)[O-])CC1)NS2(=O)=O.O=C(O)CC(O)(CC(=O)O)C(=O)O", "note": "(stereo not shown) [Example 36c, 2H-1,2,4-Benzothiadiazine-7-sulfonamide, 6-chloro-3,4-dihydro-3-[[4-[2-(nitrooxy)ethyl]-1-piperidinyl]methyl]-, 1,1-dioxide, 2-hydroxy-1,2,3-propanetricarboxylate (1:1) (salt)]", "values": [{"measurement": "Urine collected in 6 hours (mL) (3 mg/kg)", "setting": "Male Wistar rats; [1]", "result": "3.0 ± 0.4", "unit": "mL"}]}, {"compound": "Cc1c(C2Nc3cc(C(F)(F)F)c(S(N)(=O)=O)cc3S(=O)(=O)N2)no[n+]1[O-]", "note": "(stereo not shown) [Example 10, 2H-1,2,4-Benzothiadiazine-7-sulfonamide, 3,4-dihydro-3-(4-methyl-5-oxido-1,2,5-oxadiazol-3-yl)-6-(trifluoromethyl)-, 1,1-dioxide]", "values": [{"measurement": "Urine collected in 6 hours (mL) (30 mg/kg)", "setting": "Male Wistar rats; [2]", "result": "6.9 ± 0.9", "unit": "mL"}]}, {"compound": "NS(=O)(=O)c1cc2c(cc1Cl)N=C(NC(=O)CCCCCO[N+](=O)[O-])NS2(=O)=O", "note": "[Example 5b, Hexanamide, N-[7-(aminosulfonyl)-6-chloro-1,1-dioxido-2H-1,2,4-benzothiadiazin-3-yl]-6-(nitrooxy)-]", "values": [{"measurement": "Urine collected in 6 hours (mL) (30 mg/kg)", "setting": "Male Wistar rats; [2]", "result": "4.5 ± 0.5", "unit": "mL"}]}, {"compound": "NS(=O)(=O)c1cc2c(cc1Cl)NCN(CCOC(=O)CCC(CO[N+](=O)[O-])O[N+](=O)[O-])S2(=O)=O", "note": "(stereo not shown) [Example 42, Pentanoic acid, 4,5-bis(nitrooxy)-, 2-[7-(aminosulfonyl)-6-chloro-3,4-dihydro-1,1-dioxido-2H-1,2,4-benzothiadiazin-2-yl]ethyl ester]", "values": [{"measurement": "Urine collected in 6 hours (mL) (3 mg/kg)", "setting": "Male Wistar rats; rat, in vivo, po", "result": "6.2 ± 0.3", "unit": "mL"}]}, {"compound": "NS(=O)(=O)c1cc2c(cc1Cl)NCN(CCCCO[N+](=O)[O-])S2(=O)=O", "note": "[Example 40b, 2H-1,2,4-Benzothiadiazine-7-sulfonamide, 6-chloro-3,4-dihydro-2-[4-(nitrooxy)butyl]-, 1,1-dioxide]", "values": [{"measurement": "Urine collected in 6 hours (mL) (3 mg/kg)", "setting": "Male Wistar rats; [1]", "result": "6.0 ± 0.7", "unit": "mL"}]}, {"compound": "NS(=O)(=O)c1cc2c(cc1Cl)NCN(CC(O)CO)S2(=O)=O", "note": "(stereo not shown) [Example 75b, 2H-1,2,4-Benzothiadiazine-7-sulfonamide, 6-chloro-2-(2,3-dihydroxypropyl)-3,4-dihydro-, 1,1-dioxide]", "values": [{"measurement": "Urine collected in 6 hours (mL) (3 mg/kg)", "setting": "Male Wistar rats; [1]", "result": "4.6 ± 0.6", "unit": "mL"}]}, {"compound": "CC(C)(C)OC(=O)N1CCC2(CC1)Nc1cc(C(F)(F)F)c(S(N)(=O)=O)cc1S(=O)(=O)N2", "note": "[Example 12a, Spiro[2H-1,2,4-benzothiadiazine-3(4H), 4′-piperidine]-1′-carboxylic acid, 7-(aminosulfonyl)-6-(trifluoromethyl)-, 1,1-dimethylethyl ester, 1,1-dioxide]", "values": [{"measurement": "Urine collected in 6 hours (mL) (30 mg/kg)", "setting": "Male Wistar rats; [2]", "result": "4.0 ± 0.4", "unit": "mL"}]}, {"compound": "NS(=O)(=O)c1cc2c(cc1Cl)N[C@@H](CCCCO[N+](=O)[O-])NS2(=O)=O", "note": "(single isomer, unassigned) [17c (enantiomer 1)]", "values": [{"measurement": "Urine collected in 6 hours (mL) (30 mg/kg)", "setting": "Male Wistar rats; [2]", "result": "7.0 ± 0.6", "unit": "mL"}]}, {"compound": "NS(=O)(=O)c1cc2c(cc1Cl)NC(CBr)NS2(=O)=O", "note": "(stereo not shown) [Example 36a, 2H-1,2,4-Benzothiadiazine-7-sulfonamide, 3-(bromomethyl)-6-chloro-3,4-dihydro-, 1,1-dioxide]", "values": [{"measurement": "Urine collected in 6 hours (mL) (3 mg/kg)", "setting": "Male Wistar rats; [1]", "result": "5.5 ± 0.6", "unit": "mL"}]}, {"compound": "NC1=Nc2cc(Cl)c(S(N)(=O)=O)cc2S(=O)(=O)N1", "note": "[Example 4b, 2H-1,2,4-Benzothiadiazine-7-sulfonamide, 3-amino-6-chloro-, 1,1-dioxide]", "values": [{"measurement": "Urine collected in 6 hours (mL) (3 mg/kg)", "setting": "Male Wistar rats; [1]", "result": "4.0 ± 0.5", "unit": "mL"}]}, {"compound": "NS(=O)(=O)c1cc2c(cc1Cl)NCN(C[C@H](CO[N+](=O)[O-])O[N+](=O)[O-])S2(=O)=O", "note": "(single isomer, unassigned) [75d (enantiomer 1)]", "values": [{"measurement": "Urine collected in 6 hours (mL) (3 mg/kg)", "setting": "Male Wistar rats; rat, in vivo, po", "result": "5.3 ± 0.3", "unit": "mL"}]}, {"compound": "NS(=O)(=O)c1cc2c(cc1Cl)NCN(CCOc1cc(CO)cc(CO)c1)S2(=O)=O", "note": "[Example 71b, 2H-1,2,4-Benzothiadiazine-7-sulfonamide, 2-[2-[3,5-bis(hydroxymethyl)phenoxy]ethyl]-6-chloro-3,4-dihydro-, 1,1-dioxide]", "values": [{"measurement": "Urine collected in 6 hours (mL) (3 mg/kg)", "setting": "Male Wistar rats; [1]", "result": "2.1 ± 0.5", "unit": "mL"}]}, {"compound": "NS(=O)(=O)c1cc2c(cc1Cl)N[C@H](CCCCO[N+](=O)[O-])NS2(=O)=O", "note": "(single isomer, unassigned) [17c (enantiomer 2)]", "values": [{"measurement": "Urine collected in 6 hours (mL) (30 mg/kg)", "setting": "Male Wistar rats; [2]", "result": "7.8 ± 0.5", "unit": "mL"}]}, {"compound": "NS(=O)(=O)c1cc2c(cc1Cl)NCN(CC(=O)O)S2(=O)=O", "note": "[Example 31a, 2H-1,2,4-Benzothiadiazine-2-acetic acid, 7-(aminosulfonyl)-6-chloro-3,4-dihydro-, 1,1-dioxide]", "values": [{"measurement": "Urine collected in 6 hours (mL) (3 mg/kg)", "setting": "Male Wistar rats; [1]", "result": "2.5 ± 0.3", "unit": "mL"}]}, {"compound": "NS(=O)(=O)c1cc2c(cc1Cl)NCN(C[C@@H](CO[N+](=O)[O-])O[N+](=O)[O-])S2(=O)=O", "note": "(single isomer, unassigned) [75d (enantiomer 2)]", "values": [{"measurement": "Urine collected in 6 hours (mL) (3 mg/kg)", "setting": "Male Wistar rats; rat, in vivo, po", "result": "5.5 ± 0.4", "unit": "mL"}]}, {"compound": "NS(=O)(=O)c1cc2c(cc1Cl)NC1(CCN(C(=O)CCC(CO[N+](=O)[O-])O[N+](=O)[O-])CC1)NS2(=O)=O", "note": "(stereo not shown) [Example 22b, Spiro[2H-1,2,4-benzothiadiazine-3(4H), 4′-piperidine]-7-sulfonamide, 1′-[4,5-bis(nitrooxy)-1-oxopentyl]-6-chloro-, 1,1-dioxide]", "values": [{"measurement": "Urine collected in 6 hours (mL) (30 mg/kg)", "setting": "Male Wistar rats; rat, in vivo, po", "result": "2.5 ± 0.2", "unit": "mL"}]}]}
